Target: T1, human Y4 receptor (Homo sapiens, UniProt P50391)
T1 construct: expressed in transfected cells
Assay: NPY4 cAMP HTRF Agonist Assay (inhibitory cAMP assay, Gi activation by Y4 agonism)
Type: cell-based
Settings: human Y4 stable CHO clonal cells, forskolin + IBMX; read-out: NPY4 cAMP HTRF Agonist Assay EC50
In short: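 CHO cells stably expressing human Y4, 5000/well, exposed to compound with forskolin and IBMX in PBS for 30 min at room temperature. Gi-mediated inhibition of cAMP then measured by HTRF after 1 h with d2-conjugate and anti-cAMP cryptate.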

T1 sequence (P50391 whole entry): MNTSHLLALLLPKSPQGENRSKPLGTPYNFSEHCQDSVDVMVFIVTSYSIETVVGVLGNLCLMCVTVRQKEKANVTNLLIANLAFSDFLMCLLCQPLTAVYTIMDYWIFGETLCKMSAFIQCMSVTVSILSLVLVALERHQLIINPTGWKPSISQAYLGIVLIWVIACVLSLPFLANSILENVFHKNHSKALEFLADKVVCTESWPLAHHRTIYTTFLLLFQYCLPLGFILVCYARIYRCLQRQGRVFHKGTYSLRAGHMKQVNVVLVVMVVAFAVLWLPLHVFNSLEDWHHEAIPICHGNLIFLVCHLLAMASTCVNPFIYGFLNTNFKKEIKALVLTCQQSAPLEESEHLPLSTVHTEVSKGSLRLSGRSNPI

SMILES	EC50 [nM]
FC(F)(F)c1ccn(-c2ccc(N3CCC[C@H](N[C@@H]4CCCC[C@H]4Nc4nccc(-c5ccccc5)n4)C3)cc2)n1 [Example 69, (1R,2R)—N1-(4-Phenylpyrimidin-2-yl)-N2-((S)-1-(4-(3-(trifluoromethyl)-1H-pyrazol-1-yl)phenyl)piperidin-3-yl)cyclohexane-1,2-diamine bis-trifluoroacetate]	384
FC(F)(F)Oc1ccc(-c2cnc(N[C@@H]3CCCC[C@H]3N[C@H]3CCCN(c4ccc(-n5ccc(C(F)(F)F)n5)cc4)C3)o2)cc1 [Example 70, (1R,2R)—N1-(5-(4-(Trifluoromethoxy)phenyl)oxazol-2-yl)-N2-((S)-1-(4-(3-(trifluoromethyl)-1H-pyrazol-1-yl)phenyl)piperidin-3-yl)cyclohexane-1,2-diamine bis-trifluoroacetate]	799
FC(F)(F)Oc1ccc(-c2cnc(N[C@@H]3CCCC[C@H]3N[C@H]3CCCN(c4ccc(C(F)(F)F)cc4)C3)o2)cc1 [Example 71, (1R,2R)—N1-(5-(4-(Trifluoromethoxy)phenyl)oxazol-2-yl)-N2-((S)-1-(4-(trifluoromethyl)phenyl)piperidin-3-yl)cyclohexane-1,2-diamine]	45
FC(F)(F)c1ccc(N2CCC[C@H](N[C@@H]3CCCC[C@H]3Nc3ncc(-c4ccccc4)s3)C2)cc1 [Example 72, (1R,2R)—N1-(5-Phenylthiazol-2-yl)-N2-((S)-1-(4-(trifluoromethyl)phenyl)piperidin-3-yl)cyclohexane-1,2-diamine]	15
Fc1cc(N2CCC[C@H](N[C@@H]3CCCC[C@H]3Nc3ncc(-c4ccc(OC(F)(F)F)cc4)o3)C2)ccc1C(F)(F)F [Example 73, (1R,2R)—N1-((S)-1-(3-Fluoro-4-(trifluoromethyl)phenyl)piperidin-3-yl)-N2-(5-(4-(trifluoromethoxy)phenyl)oxazol-2-yl)cyclohexane-1,2-diamine bis-trifluoroacetate]	83
Fc1cc(N2CCC[C@H](N[C@@H]3CCCC[C@H]3Nc3nccc(-c4ccccc4)n3)C2)ccc1C(F)(F)F [Example 74, (1R,2R)—N1-((S)-1-(3-Fluoro-4-(trifluoromethyl)phenyl)piperidin-3-yl)-N2-(4-phenylpyrimidin-2-yl)cyclohexane-1,2-diamine bis-trifluoroacetate]	420
FC(F)(F)c1ccc(N2CCC[C@H](N[C@@H]3CCCC[C@H]3Nc3cc(-c4ccccc4)ccn3)C2)cc1 [Example 75, (1R,2R)—N1-(4-Phenylpyridin-2-yl)-N2-((S)-1-(4-(trifluoromethyl)phenyl)piperidin-3-yl)cyclohexane-1,2-diamine]	252
Fc1cccc(-c2cnc(N[C@@H]3CCCC[C@H]3N[C@H]3CCCN(c4ccc(C(F)(F)F)cc4)C3)o2)c1 [Example 76, (1R,2R)—N1-(5-(3-Fluorophenyl)oxazol-2-yl)-N2-((S)-1-(4-(trifluoromethyl)phenyl)piperidin-3-yl)cyclohexane-1,2-diamine]	21
O=[N+]([O-])c1cnc(N2CCC[C@H](N[C@@H]3CCCC[C@H]3Nc3ncc(-c4ccccc4)o3)C2)nc1 [Example 77, (1R,2R)—N1-((S)-1-(5-Nitropyrimidin-2-yl)piperidin-3-yl)-N2-(5-phenyloxazol-2-yl)cyclohexane-1,2-diamine bis-trifluoroacetate]	34
O=[N+]([O-])c1cnc(N2CCC[C@H](N[C@@H]3CCCC[C@H]3Nc3ncc(-c4ccc(OC(F)(F)F)cc4)o3)C2)nc1 [Example 78, (1R,2R)—N1-((S)-1-(5-Nitropyrimidin-2-yl)piperidin-3-yl)-N2-(5-(4-(trifluoromethoxy)phenyl)oxazol-2-yl)cyclohexane-1,2-diamine bis-trifluoroacetate]	75
FC(F)(F)c1cnc(N2CCC[C@H](N[C@@H]3CCCC[C@H]3Nc3ncc(-c4ccccc4)o3)C2)nc1 [Example 79, (1R,2R)—N1-(5-Phenyloxazol-2-yl)-N2-((S)-1-(5-(trifluoromethyl)pyrimidin-2-yl)piperidin-3-yl)cyclohexane-1,2-diamine bis-trifluoroacetate]	83
FC(F)(F)Oc1ccc(-c2cnc(N[C@@H]3CCCC[C@H]3N[C@H]3CCCN(c4ncc(C(F)(F)F)cn4)C3)o2)cc1 [Example 80, (1R,2R)—N1-(5-(4-(Trifluoromethoxy)phenyl)oxazol-2-yl)-N2-((S)-1-(5-(trifluoromethyl)pyrimidin-2-yl)piperidin-3-yl)cyclohexane-1,2-diamine bis-trifluoroacetate]	242
N#Cc1cnc(N2CCC[C@H](N[C@@H]3CCCC[C@H]3Nc3ncc(-c4ccc(OC(F)(F)F)cc4)o3)C2)nc1 [Example 81, 2-((S)-3-((1R,2R)-2-(5-(4-(Trifluoromethoxy)phenyl)oxazol-2-ylamino)cyclohexylamino)piperidin-1-yl)pyrimidine-5-carbonitrile bis-trifluoroacetate]	41
N#Cc1cnc(N2CCC[C@H](N[C@@H]3CCCC[C@H]3Nc3ncc(-c4ccccc4)o3)C2)nc1 [Example 82, 2-((S)-3-((1R,2R)-2-(5-Phenyloxazol-2-ylamino)cyclohexylamino)piperidin-1-yl)pyrimidine-5-carbonitrile]	107
Cc1nnc(-c2ccc(N3CCC[C@H](N[C@@H]4CCCC[C@H]4Nc4ncc(-c5ccccc5)o4)C3)cc2)o1 [Example 83, (1R,2R)—N1-((S)-1-(4-(5-Methyl-1,3,4-oxadiazol-2-yl)phenyl)piperidin-3-yl)-N2-(5-phenyloxazol-2-yl)cyclohexane-1,2-diamine bis-trifluoroacetate]	9
Cc1nnc(-c2ccc(N3CCC[C@H](N[C@@H]4CCCC[C@H]4Nc4nccc(-c5ccccc5)n4)C3)cc2)o1 [Example 84, (1R,2R)—N1-((S)-1-(4-(5-Methyl-1,3,4-oxadiazol-2-yl)phenyl)piperidin-3-yl)-N2-(4-phenylpyrimidin-2-yl)cyclohexane-1,2-diamine bis-trifluoroacetate]	9
Cc1nnc(-c2ccc(N3CCC[C@H](N[C@@H]4CCCC[C@H]4Nc4ncc(-c5ccc(OC(F)(F)F)cc5)o4)C3)cc2)o1 [Example 85, (1R,2R)—N1-((S)-1-(4-(5-Methyl-1,3,4-oxadiazol-2-yl)phenyl)piperidin-3-yl)-N2-(5-(4-(trifluoromethoxy)phenyl)oxazol-2-yl)cyclohexane-1,2-diamine]	145
FC(F)(F)Oc1ccc(N2CCC[C@H](N[C@@H]3CCCC[C@H]3Nc3ncc(-c4ccccc4)o3)C2)cc1 [Example 86, (1R,2R)—N1-(5-Phenyloxazol-2-yl)-N2-((S)-1-(4-(trifluoromethoxy)phenyl)piperidin-3-yl)cyclohexane-1,2-diamine]	91
FC(F)(F)Oc1ccc(-c2cnc(N[C@@H]3CCCC[C@H]3N[C@H]3CCCN(c4ccc(OC(F)(F)F)cc4)C3)o2)cc1 [Example 87, (1R,2R)—N1-(5-(4-(Trifluoromethoxy)phenyl)oxazol-2-yl)-N2-((S)-1-(4-(trifluoromethoxy)phenyl)piperidin-3-yl)cyclohexane-1,2-diamine]	185
FC(F)(F)Oc1ccc(N2CCC[C@H](N[C@@H]3CCCC[C@H]3Nc3nccc(-c4ccccc4)n3)C2)cc1 [Example 88, (1R,2R)—N1-(4-Phenylpyrimidin-2-yl)-N2-((S)-1-(4-(trifluoromethoxy)phenyl)piperidin-3-yl)cyclohexane-1,2-diamine]	704
FC(F)(F)Oc1ccc(-c2cnc(N[C@@H]3CCCC[C@H]3N[C@H]3CCCN(c4ccc(-n5cncn5)cc4)C3)o2)cc1 [Example 89, (1R,2R)—N1-((S)-1-(4-(1H-1,2,4-Triazol-1-yl)phenyl)piperidin-3-yl)-N2-(5-(4-(trifluoromethoxy)phenyl)oxazol-2-yl)cyclohexane-1,2-diamine bis-trifluoroacetate]	58
c1ccc(-c2cnc(N[C@@H]3CCCC[C@H]3N[C@H]3CCCN(c4ccc(-n5cncn5)cc4)C3)o2)cc1 [Example 90, (1R,2R)—N1-((S)-1-(4-(1H-1,2,4-Triazol-1-yl)phenyl)piperidin-3-yl)-N2-(5-phenyloxazol-2-yl)cyclohexane-1,2-diamine bis-trifluoroacetate]	132
c1ccc(-c2ccnc(N[C@@H]3CCCC[C@H]3N[C@H]3CCCN(c4ccc(-n5cncn5)cc4)C3)n2)cc1 [Example 91, (1R,2R)—N1-((S)-1-(4-(1H-1,2,4-Triazol-1-yl)phenyl)piperidin-3-yl)-N2-(4-phenylpyrimidin-2-yl)cyclohexane-1,2-diamine bis-trifluoroacetate]	288
Ic1ccc(N2CCC[C@H](N[C@@H]3CCCC[C@H]3Nc3nccc(-c4ccccc4)n3)C2)cc1 [Example 92, (1R,2R)—N1-((S)-1-(4-Iodophenyl)piperidin-3-yl)-N2-(4-phenylpyrimidin-2-yl)cyclohexane-1,2-diamine bis-trifluoroacetate]	469
FC(F)(F)Oc1ccc(-c2cnc(N[C@@H]3CCCC[C@H]3N[C@H]3CCCN(c4ccc(I)cc4)C3)o2)cc1 [Example 93, (1R,2R)—N1-((S)-1-(4-Iodophenyl)piperidin-3-yl)-N2-(5-(4-(trifluoromethoxy)phenyl)oxazol-2-yl)cyclohexane-1,2-diamine bis-trifluoroacetate]	33
FC(F)(F)Oc1ccc(-c2cnc(N[C@@H]3CCCC[C@H]3N[C@H]3CCCN(c4ccc(C(F)(F)F)cn4)C3)o2)cc1 [Example 94, (1R,2R)—N1-(5-(4-(Trifluoromethoxy)phenyl)oxazol-2-yl)-N2-((S)-1-(5-(trifluoromethyl)pyridin-2-yl)piperidin-3-yl)cyclohexane-1,2-diamine]	210
N#Cc1ccc(N2C[C@@H]3CC(N[C@@H]4CCCC[C@H]4Nc4ncc(-c5ccc(OC(F)(F)F)cc5)o4)[C@H]2C3)cc1 (stereo partly drawn) [Example 95, 4-((1R,4R)-6-((1R,2R)-2-(5-(4-(Trifluoromethoxy)phenyl)oxazol-2-ylamino)cyclohexylamino)-2-azabicyclo[2.2.1]heptan-2-yl)benzonitrile]	10

Reference: patent publication US8815909B2, “Diaminocyclohexane compounds and uses thereof” (Bristol-Myers Squibb Company, priority 2011, dated 2014)
